Measurements taken from patent publication US9012443B2 (Amgen Inc., priority 2011, dated 2015).
Like-named read-outs stand apart in the source and are kept apart here.

How the values were obtained:
Format in all cases: cell-based
Nav 1.5 = Nav 1.5 (Homo sapiens (Human), UniProt Q14524); test: Nav 1.5 in vitro PX assay (PatchXpress whole cell voltage clamp); conditions: 293 cells stably transfected with Nav 1.5
Summary of the method: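 HEK293 cells stably expressing Nav 1.5, whole-cell voltage clamp held at −50 mV; 20 msec test pulses to 0 mV at 0.1 Hz, each preceded by a step to −120 mV.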

Nav 1.7 [1] = molecular target: T1, Nav 1.7 (Homo sapiens (Human), UniProt Q15858); test: Nav 1.7 in vitro PX assay (PatchXpress whole cell voltage clamp); conditions: 293 cells, human Nav1.7, partially inactivated state; read-out: Nav1.7 PX IC50 IP
Summary of the method: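 HEK293 cells stably expressing human Nav1.7, whole-cell voltage clamp on PatchXpress, held at potential giving 20–50% inactivation; current elicited by 20 msec pulse to −10 mV.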

Nav 1.7 [2] = molecular target: T1, Nav 1.7; test: Nav 1.7 IWQ in vitro assay (IonWorks Quattro population patch-clamp); conditions: 293 cells stably transfected with Nav 1.7
Summary of the method: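 HEK293 cells stably expressing Nav 1.7, recorded by automated population patch-clamp with a train of depolarizations producing increasing inactivation. Single compound concentration added during 3–8 min unclamped period, then same protocol repeated. Leak-corrected current at 26th pulse to −20 mV gave percent block (duplicate); IC50 fitted from concentration–block curves.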

[3] = second part of table, read-out: Nav1.5 PX IC50
[4] = second part of table, read-out: Nav1.7 IWQ IC50 IP
[5] = first part of table, read-out: Nav 1.5 PX IC50
[6] = first part of table, read-out: Nav 1.7 IWQ IC50

Nav 1.5, sequence (Q14524 whole entry): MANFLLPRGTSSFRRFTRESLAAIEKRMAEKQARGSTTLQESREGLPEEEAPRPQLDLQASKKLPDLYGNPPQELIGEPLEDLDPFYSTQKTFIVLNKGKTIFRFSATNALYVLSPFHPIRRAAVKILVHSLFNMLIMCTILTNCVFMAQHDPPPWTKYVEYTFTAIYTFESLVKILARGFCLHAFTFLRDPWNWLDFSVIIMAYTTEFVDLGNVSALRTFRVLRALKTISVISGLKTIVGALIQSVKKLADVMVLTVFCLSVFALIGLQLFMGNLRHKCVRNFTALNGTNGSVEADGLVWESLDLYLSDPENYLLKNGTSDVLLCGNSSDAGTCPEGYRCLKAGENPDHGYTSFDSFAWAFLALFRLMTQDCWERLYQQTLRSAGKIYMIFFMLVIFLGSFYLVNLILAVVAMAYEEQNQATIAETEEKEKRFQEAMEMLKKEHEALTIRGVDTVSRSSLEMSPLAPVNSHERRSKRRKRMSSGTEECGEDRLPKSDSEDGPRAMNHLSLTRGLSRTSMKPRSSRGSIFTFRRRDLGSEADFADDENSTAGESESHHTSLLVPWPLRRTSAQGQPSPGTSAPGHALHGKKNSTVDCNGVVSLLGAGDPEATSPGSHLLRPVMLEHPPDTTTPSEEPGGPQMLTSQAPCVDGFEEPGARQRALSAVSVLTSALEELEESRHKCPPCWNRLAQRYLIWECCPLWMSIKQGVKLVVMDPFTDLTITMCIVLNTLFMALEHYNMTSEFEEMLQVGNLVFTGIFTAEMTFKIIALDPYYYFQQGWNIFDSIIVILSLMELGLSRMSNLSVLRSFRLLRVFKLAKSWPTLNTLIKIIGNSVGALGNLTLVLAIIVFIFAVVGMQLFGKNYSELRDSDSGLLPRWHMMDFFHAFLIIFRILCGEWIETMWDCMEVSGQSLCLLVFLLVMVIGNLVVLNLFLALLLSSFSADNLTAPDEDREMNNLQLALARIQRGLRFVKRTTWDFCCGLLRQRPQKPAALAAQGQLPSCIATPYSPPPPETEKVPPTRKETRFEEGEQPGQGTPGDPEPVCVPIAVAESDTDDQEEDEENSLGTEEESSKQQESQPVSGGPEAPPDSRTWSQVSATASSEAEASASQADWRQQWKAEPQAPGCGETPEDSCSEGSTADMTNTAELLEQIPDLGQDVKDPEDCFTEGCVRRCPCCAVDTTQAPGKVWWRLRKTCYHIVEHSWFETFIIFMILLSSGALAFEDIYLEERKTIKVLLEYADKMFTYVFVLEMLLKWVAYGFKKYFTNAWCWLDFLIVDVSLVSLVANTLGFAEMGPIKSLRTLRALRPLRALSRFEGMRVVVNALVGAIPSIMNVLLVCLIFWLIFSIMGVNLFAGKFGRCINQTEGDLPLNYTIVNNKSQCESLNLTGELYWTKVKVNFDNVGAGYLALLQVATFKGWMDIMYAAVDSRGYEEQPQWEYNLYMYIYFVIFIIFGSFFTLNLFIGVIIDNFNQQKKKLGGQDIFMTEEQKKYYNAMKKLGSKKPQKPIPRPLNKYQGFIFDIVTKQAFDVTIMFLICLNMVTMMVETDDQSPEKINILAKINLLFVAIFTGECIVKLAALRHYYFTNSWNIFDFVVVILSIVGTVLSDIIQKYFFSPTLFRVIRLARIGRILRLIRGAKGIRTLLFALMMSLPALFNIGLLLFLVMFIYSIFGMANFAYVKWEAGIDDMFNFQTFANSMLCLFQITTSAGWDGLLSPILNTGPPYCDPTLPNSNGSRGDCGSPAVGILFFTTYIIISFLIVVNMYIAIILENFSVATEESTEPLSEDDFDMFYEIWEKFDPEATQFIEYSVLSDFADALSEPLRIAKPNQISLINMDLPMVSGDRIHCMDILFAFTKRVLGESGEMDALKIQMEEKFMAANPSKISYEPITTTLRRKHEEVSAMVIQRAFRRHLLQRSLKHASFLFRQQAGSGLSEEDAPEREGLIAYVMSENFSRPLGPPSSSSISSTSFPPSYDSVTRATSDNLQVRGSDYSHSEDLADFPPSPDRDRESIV
T1 sequence (Q15858 whole entry): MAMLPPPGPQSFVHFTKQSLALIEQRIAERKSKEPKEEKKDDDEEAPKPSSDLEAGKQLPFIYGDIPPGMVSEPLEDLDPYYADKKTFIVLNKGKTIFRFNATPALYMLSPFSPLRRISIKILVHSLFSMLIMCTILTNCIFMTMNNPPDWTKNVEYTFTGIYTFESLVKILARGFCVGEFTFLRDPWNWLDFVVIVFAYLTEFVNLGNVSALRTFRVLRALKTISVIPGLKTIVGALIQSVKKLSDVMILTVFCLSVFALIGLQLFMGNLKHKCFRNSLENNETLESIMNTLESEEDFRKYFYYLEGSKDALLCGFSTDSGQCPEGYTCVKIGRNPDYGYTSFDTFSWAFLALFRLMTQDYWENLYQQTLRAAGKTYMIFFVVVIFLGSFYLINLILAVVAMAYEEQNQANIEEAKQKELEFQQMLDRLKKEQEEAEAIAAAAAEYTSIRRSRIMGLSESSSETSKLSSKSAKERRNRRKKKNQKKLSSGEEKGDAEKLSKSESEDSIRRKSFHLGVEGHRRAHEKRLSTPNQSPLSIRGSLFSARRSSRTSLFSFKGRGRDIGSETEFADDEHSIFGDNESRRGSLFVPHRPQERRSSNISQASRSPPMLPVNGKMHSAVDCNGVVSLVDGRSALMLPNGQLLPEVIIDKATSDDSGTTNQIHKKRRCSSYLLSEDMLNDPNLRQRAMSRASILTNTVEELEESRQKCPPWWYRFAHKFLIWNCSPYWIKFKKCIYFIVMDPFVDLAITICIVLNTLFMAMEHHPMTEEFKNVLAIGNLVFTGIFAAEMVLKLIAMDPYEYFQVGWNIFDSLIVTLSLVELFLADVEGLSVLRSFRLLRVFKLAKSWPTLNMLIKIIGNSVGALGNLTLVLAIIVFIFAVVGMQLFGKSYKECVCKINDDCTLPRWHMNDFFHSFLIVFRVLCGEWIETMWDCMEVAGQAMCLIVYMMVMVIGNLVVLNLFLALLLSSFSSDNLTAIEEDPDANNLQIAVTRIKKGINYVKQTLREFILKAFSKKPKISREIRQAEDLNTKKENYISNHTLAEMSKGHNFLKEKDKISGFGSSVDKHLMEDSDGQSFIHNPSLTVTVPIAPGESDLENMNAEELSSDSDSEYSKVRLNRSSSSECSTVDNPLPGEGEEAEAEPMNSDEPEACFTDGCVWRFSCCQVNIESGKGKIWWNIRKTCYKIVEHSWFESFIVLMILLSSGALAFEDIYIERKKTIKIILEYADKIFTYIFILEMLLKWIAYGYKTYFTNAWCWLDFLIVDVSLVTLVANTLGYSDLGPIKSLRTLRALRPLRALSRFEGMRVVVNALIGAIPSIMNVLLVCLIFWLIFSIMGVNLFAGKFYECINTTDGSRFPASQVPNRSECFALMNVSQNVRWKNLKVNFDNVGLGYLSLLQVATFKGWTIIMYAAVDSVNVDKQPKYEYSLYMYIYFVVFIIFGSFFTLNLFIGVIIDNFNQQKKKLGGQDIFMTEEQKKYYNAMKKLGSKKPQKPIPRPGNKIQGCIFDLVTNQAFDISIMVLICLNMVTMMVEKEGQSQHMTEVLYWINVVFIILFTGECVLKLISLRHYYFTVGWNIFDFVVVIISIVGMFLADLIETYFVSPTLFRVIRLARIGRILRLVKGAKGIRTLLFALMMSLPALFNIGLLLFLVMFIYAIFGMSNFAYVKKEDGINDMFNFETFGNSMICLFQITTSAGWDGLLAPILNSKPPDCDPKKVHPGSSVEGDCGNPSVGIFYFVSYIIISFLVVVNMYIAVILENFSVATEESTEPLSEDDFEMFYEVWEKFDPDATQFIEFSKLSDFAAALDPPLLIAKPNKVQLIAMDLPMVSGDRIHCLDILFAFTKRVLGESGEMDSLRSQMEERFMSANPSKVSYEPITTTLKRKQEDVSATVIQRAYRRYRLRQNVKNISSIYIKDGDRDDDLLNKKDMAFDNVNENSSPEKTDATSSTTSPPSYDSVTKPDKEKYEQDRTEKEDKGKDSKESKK

| IC50 (Nav 1.7 [1]) [nM] | IC50 (Nav 1.7 [2]; [4]) [nM] | IC50 (Nav 1.7 [2]; [6]) [nM] | SMILES | IC50 (Nav 1.5; [3]) [nM] | IC50 (Nav 1.5; [5]) [nM] |
| --- | --- | --- | --- | --- | --- |
| 134 | 10 | – | COc1cc(C(F)(F)F)ccc1-c1nccc2cc(S(=O)(=O)Nc3ncns3)ccc12 [Example 195, 1-(2-METHOXY-4-(TRIFLUOROMETHYL)PHENYL)-N-(1,2,4-THIADIAZOL-5-YL)ISOQUINOLINE-6-SULFONAMIDE] | > 30000 | – |
| – | – | 1800 | O=S(=O)(Nc1ncns1)c1ccc2c(N3CCOC(c4ccccc4)C3)cccc2c1 (single isomer, unassigned) [14 (isomer 2), 5-(2-phenylmorpholino)-N-(1,2,4-thiadiazol-5-yl)naphthalene-2-sulfonamide] | – | > 30000 |
| – | – | 50 | O=S(=O)(Nc1ncns1)c1ccc2c(-c3ccc(Cl)cc3-c3ccncc3)cccc2c1 [Example 28] | – | > 30000 |
| – | – | 110 | O=S(=O)(Nc1ncns1)c1ccc2c(-c3ccc(C(F)(F)F)cc3Br)cccc2c1 [Example 23] | – | 20700 |
| – | – | 1970 | O=S(=O)(Nc1ncns1)c1ccc2c(-c3ccc(Cl)cc3Cl)cccc2c1 [Example 40] | – | > 30000 |
| – | – | 50 | CCOc1cc(C(F)(F)F)ccc1-c1cccc2cc(S(=O)(=O)Nc3ncns3)ccc12 [Example 10] | – | 6680 |
| – | – | 40 | N#Cc1cc(C(F)(F)F)ccc1-c1cccc2cc(S(=O)(=O)Nc3ncns3)ccc12 [Example 22] | – | > 30000 |
| – | – | 30 | O=S(=O)(Nc1ncns1)c1ccc2c(-c3ccc(C(F)(F)F)cc3-c3ccncc3)cccc2c1 [Example 2] | – | > 30000 |
| – | – | 200 | O=S(=O)(Nc1ncns1)c1ccc2c(-c3ccccc3Cl)cccc2c1 [Example 8] | – | 21300 |
| 200 | 10 | – | COc1cc(C(F)(F)F)ccc1-c1ncnc2cc(S(=O)(=O)Nc3nccs3)ccc12 [Example 261, 4-(2-methoxy-4-(trifluoromethyl)phenyl)-N-(thiazol-2-yl)quinazoline-7-sulfonamide] | > 30000 | – |
| – | – | 110 | O=S(=O)(Nc1nccs1)c1ccc2c(-c3ccc(C(F)(F)F)cc3Cl)nccc2c1 [Example 51, 1-(2-CHLORO-4-(TRIFLUOROMETHYL)PHENYL)-N-(THIAZOL-2-YL)ISOQUINOLINE-6-SULFONAMIDE] | – | > 30000 |
| – | – | 10 | COc1cc(C(F)(F)F)ccc1-c1cccc2cc(S(=O)(=O)Nc3ncns3)ccc12 [Example 12] | – | 11600 |
| – | – | 70 | O=S(=O)(Nc1ncns1)c1ccc2c(-c3ccc(C(F)(F)F)cc3-c3ccncc3)nccc2c1 [Example 53, 1-(2-(PYRIDIN-4-YL)-4-(TRIFLUOROMETHYL)PHENYL)-N-(1,2,4-THIADIAZOL-5-YL)ISOQUINOLINE-6-SULFONAMIDE] | – | > 30000 |
| – | – | 900 | O=S(=O)(Nc1ncns1)c1ccc2c(-c3ccc(OC(F)(F)F)cc3Cl)cccc2c1 [Example 4] | – | 10900 |
| 156 | 20 | – | COc1cc(-c2cccc(F)c2)ccc1-c1nccc2cc(S(=O)(=O)Nc3ccncn3)ccc12 [Example 199, 1-(3′-FLUORO-3-METHOXY-[1,1′-BIPHENYL]-4-YL)-N-(PYRIMIDIN-4-YL)ISOQUINOLINE-6-SULFONAMIDE 2,2,2-TRIFLUOROACETATE] | > 30000 | – |
| – | – | 1540 | O=S(=O)(Nc1ncns1)c1ccc2c(-c3ccc(Cl)cc3C(F)(F)F)cccc2c1 [Example 39] | – | 7770 |
| 350 | 50 | – | COc1cc(C(F)(F)F)ccc1-c1ccnc2cc(S(=O)(=O)Nc3nccs3)ccc12 [Example 276, 4-(2-METHOXY-4-(TRIFLUOROMETHYL)PHENYL)-N-(THIAZOL-2-YL)QUINOLINE-7-SULFONAMIDE] | 12300 | – |
